PubChem BioAssay (NCI)
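A five-concentration, 48-hour dose response in 96-well plates underlies each endpoint, interpolated linearly between surrounding concentrations. TGI is the concentration that stops growth completely.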

Experiments:
Assay in all cases: NCI tumour cell line growth inhibition, 48 h
[1] = test system: DLD-1 colon
[2] = test system: DMS 114 small cell lung
[3] = test system: DMS 273 small cell lung
[4] = test system: HOP-18 NSCLC
[5] = test system: LXFL 529 NSCLC
[6] = test system: M19-MEL melanoma
[7] = test system: SNB-78 CNS
[8] = test system: P388 leukemia
[9] = test system: P388/ADR leukemia
[10] = test system: SN12K1 renal
[11] = test system: RXF-631 renal

C=Nc1ccc([N+](=O)[O-])cc1
TGI [1]: > 100 µM
TGI [2]: > 100 µM
TGI [3]: > 100 µM
TGI [4]: > 92.9 µM
TGI [5]: > 100 µM
TGI [6]: > 100 µM
TGI [7]: > 100 µM

COC(=O)C1=C(C)N2CCCOC2(C)C(C(=O)OC)C1c1cccc(Cl)c1 (stereo not drawn)
TGI [2]: 60.5 µM
TGI [5]: 74.6 µM
TGI [6]: 54.3 µM

CN(C)N=Nc1ccc([N+](=O)[O-])cc1C(N)=O
TGI [1]: > 100 µM
TGI [2]: > 100 µM
TGI [3]: > 100 µM
TGI [4]: > 100 µM
TGI [6]: > 100 µM
TGI [8]: > 100 µM
TGI [9]: > 100 µM
TGI [10]: > 100 µM
TGI [7]: > 100 µM

Cc1cn(C2CC(O)C(CO)C2C)c(=O)[nH]c1=O (stereo not drawn)
TGI [1]: > 100 µM
TGI [2]: > 100 µM
TGI [3]: > 100 µM
TGI [4]: > 100 µM
TGI [5]: > 100 µM
TGI [6]: > 100 µM
TGI [11]: > 100 µM
TGI [7]: > 100 µM

CO/C(=N\N=C\c1ccc(Cl)cc1)c1ccncc1
TGI [1]: > 100 µM
TGI [2]: > 100 µM
TGI [3]: > 100 µM
TGI [5]: > 100 µM
TGI [7]: > 100 µM

CC(C)(C)C#C[P+](c1ccccc1)(c1ccccc1)c1ccccc1
TGI [1]: 2.5 µM
TGI [4]: 6.34 µM
TGI [5]: 0.67 µM
TGI [6]: 1.14 µM
TGI [11]: 2.63 µM
TGI [7]: 1.35 µM
